Data as given in patent US20060128759A1, “Substituted isoxazole derivatives and their use in pharmaceutics” (MERCKLE GMBH, priority 2002, published 2006).

Biological target: p38α (Homo sapiens, UniProt Q16539)
Assay: Kinase assay (phosphorylation of ATF2 by activated p38α, ELISA readout at 405 nm)
Assay type: biochemical
Details: for IC50: activated p38α, ATF2 substrate, 100 μM ATP, 37° C., 1 hour, read-out: IC50 p 38
Protocol: • 1) The mononuclear cells (PBMCs) from human potassium-EDTA whole blood, diluted 1:3, are isolated by density gradient centrifugation (Histopaque®-1.077). The cells are washed twice with DPBS buffer, resuspended in macrophage SFM medium and adjusted to a cell count of 1*10^6 cells/ml. • The resulting PBMCs suspension (samples of in each case 390 μl) and the test substance are preincubated at 37° C. in a CO2 incubator (5% CO2; 95% moisture-saturated air) for 15 min. The samples are then stimulated with in each case 1 μl/ml of LPS (E. coli 026:B6) at 37° C. in a CO2 incubator (5% CO2; 95% moisture-saturated air) for 4 hours. The reaction is stopped by placing the samples on ice, adding DPBS buffer and then centrifuging at 15 880*g for 12 min. The amount of IL-1β and TNFα in the plasma supernatant is then determined by ELISA. • 2) Kinase assay • At 37° C., microtiter plates were coated for one hour with 50 μl of ATF2 solution (20 μg/ml). The plates were washed three times with water, and 50 μl of kinase mixture (50 mM tris-HCl 10 mM MgCl2, 10 mM β-glycerol phosphate, 10 μg/ml of BSA, 1 mM DTT, 100 μM ATP, 100 μM Na3VO4, 10 ng of activated p38α) with or without inhibitor were added into the wells, and the plates were incubated at 37° C. for 1 hour. The plates were washed three times and then incubated with phosphorus-ATF-2 antibody at 37° C. for one hour. The plates were once more washed three times, and goat-antirabbit IgG labeled with alkaline phosphatase was added at 37° C. for one hour (to fix the antibody-phosphorylated protein/substrate complex). The plates were washed three times, and the alkaline phosphatase/substrate solution (3 mM 4-NPP, 50 mM NaHCO3, 50 mM MgCl2, 100 μl/well) was added at 37° C. for 1.5 hours. […] The IC50 values were calculated.

Chain of p38α (Q16539 whole entry): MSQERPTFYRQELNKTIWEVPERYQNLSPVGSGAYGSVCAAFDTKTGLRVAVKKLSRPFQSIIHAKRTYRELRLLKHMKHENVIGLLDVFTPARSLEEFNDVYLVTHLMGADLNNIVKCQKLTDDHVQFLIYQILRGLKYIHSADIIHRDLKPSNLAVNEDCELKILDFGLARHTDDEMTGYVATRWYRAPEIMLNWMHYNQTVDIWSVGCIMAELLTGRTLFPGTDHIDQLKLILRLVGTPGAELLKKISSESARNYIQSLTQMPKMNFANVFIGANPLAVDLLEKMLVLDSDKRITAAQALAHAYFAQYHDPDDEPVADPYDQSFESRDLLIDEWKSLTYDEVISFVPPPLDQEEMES

Fc1ccc(-c2noc(-c3ccc(F)cc3)c2-c2ccncc2)cc1 [Compound 14, 4-[3,5-Bis(4-fluorophenyl)isoxazol-4-yl]pyridine]
inhibition at 10 µM (at 10^−5 mol/l, read-out: % inhibition of p 38): 43.6%

Fc1ccc(-c2c(-c3ccncc3)noc2C2CC2)cc1 [Compound 7, 4-[5-cyclopropyl-4-(4-fluorophenyl)isozazol-3-yl]pyridine]
IC50: 28 µM

COc1ccc(-c2onc(-c3ccncc3)c2-c2ccc(F)cc2)cc1 [Compound 10, 4-[4-(4-fluorophenyl)-5-(4-methoxyphenyl)isoxazol-3-yl]pyridine]
IC50: 10 µM

CN(C)Cc1onc(-c2ccncc2)c1-c1ccc(F)cc1 [Compound 4, [4-(4-fluorophenyl)-3-pyridin-4-ylisoxazol-5-ylmethyl]dimethylamine]
IC50: 4 µM

Fc1ccc(-c2c(-c3ccncc3)noc2-c2ccccc2)cc1 [Compound 5, 4-[4-(4-fluorophenyl)-5-phenylisoxazol-3-yl]pyridine]
IC50: 22 µM

CC(=O)Nc1cc(-c2onc(-c3ccncc3)c2-c2ccc(F)cc2)ccn1 [Compound 3, N-{4-[4-(4-fluorophenyl)-3-pyridin-4-ylisoxazol-5-yl]pyridine-2-yl}acetamide]
IC50: 30 µM

Fc1ccc(-c2c(-c3ccncc3)noc2-c2ccco2)cc1 [Compound 6, 4-[4-(4-fluorophenyl)-5-furan-2-ylisoxazol-3-yl]pyridine]
IC50: 22 µM

CN(C)c1ccc(-c2onc(-c3ccncc3)c2-c2ccc(F)cc2)cc1 [Compound 8, {4-[4-(4-fluorophenyl)-3-pyridin-4-ylisoxazol-5-yl]phenyl}dimethylamine]
IC50: 27 µM

Fc1ccc(-c2c(-c3ccncc3)noc2N2CCCCC2)cc1 [Compound 9, 4-[4-(4-fluorophenyl)-5-piperidin-1-ylisoxazol-3-yl]pyridine]
IC50: 10 µM

Cc1onc(-c2ccncc2)c1-c1ccc(F)cc1 [Compound 1, 4-[4-(4-fluorophenyl)-5-methylisoxazol-3-yl]pyridine]
IC50: 67.5 µM

4-[5-(ethoxyphenyl)-4-(4-fluorophenyl)isoxazol-3-yl]pyridine [Compound 11]
IC50: 10 µM
